Where a name gives a salt, the structure may show the parent alone. Read-outs that look alike come from different tables or passages of the source. Square brackets hold non-standard residues; d marks the D form. Peptide text beside a SMILES is read from it. * marks the point of attachment. Sta = CC(C)C[C@H](N)[C@@H](O)CC(=O)O; Isovaleryl = CC(C)CC(=O)*
How the values were obtained:
[1] = target: T1, purified leucine aminopeptidase (LAP) (Sus scrofa, UniProt P15145); assay: Purified Leucine Aminopeptidase Activity (Purified Enzyme Method); format: biochemical
T1 construct: purchased Sigma, St. Louis, Mo; L5006
T1 sequence (P15145 1-963): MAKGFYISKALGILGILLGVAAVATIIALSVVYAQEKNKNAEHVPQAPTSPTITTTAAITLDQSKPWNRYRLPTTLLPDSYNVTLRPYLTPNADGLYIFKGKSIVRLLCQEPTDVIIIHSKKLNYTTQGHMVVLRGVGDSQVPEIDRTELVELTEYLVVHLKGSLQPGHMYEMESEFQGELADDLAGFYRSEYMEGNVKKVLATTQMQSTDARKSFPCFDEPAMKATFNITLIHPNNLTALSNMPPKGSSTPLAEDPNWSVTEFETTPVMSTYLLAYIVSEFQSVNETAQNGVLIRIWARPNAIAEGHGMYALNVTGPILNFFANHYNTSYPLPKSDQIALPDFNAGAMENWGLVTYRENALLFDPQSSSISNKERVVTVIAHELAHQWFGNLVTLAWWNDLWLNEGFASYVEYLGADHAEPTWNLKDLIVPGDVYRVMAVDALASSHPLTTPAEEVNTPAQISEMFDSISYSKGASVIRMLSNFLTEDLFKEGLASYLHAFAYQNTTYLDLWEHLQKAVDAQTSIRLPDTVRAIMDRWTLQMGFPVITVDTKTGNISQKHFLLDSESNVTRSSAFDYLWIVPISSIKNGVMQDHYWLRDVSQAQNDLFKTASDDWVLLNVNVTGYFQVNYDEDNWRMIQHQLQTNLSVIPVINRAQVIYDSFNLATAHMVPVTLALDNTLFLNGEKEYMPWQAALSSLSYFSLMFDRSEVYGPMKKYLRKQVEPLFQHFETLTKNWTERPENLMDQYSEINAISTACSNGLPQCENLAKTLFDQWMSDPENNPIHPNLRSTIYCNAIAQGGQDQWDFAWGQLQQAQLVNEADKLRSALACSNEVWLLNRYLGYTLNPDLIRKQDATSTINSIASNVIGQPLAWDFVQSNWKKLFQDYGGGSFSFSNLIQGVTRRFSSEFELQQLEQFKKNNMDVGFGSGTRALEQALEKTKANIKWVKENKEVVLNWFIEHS
Description: The IC50 is calculated according to the equation IC50=[I]/[(v/vi)−1], where [I] is the inhibitor concentration tested, v is the rate of substrate cleavage in the absence of the inhibitor and vi is the rate of substrate cleavage in the presence of the inhibitor. As described further below, the IC50 of an enzyme inhibitor according to the invention may be measured by a Purified Enzyme method, by a Specific Fecal Enzyme method or by a General Fecal Enzymes method.
Standard in vitro assays for enzyme activity, and inhibition of enzyme activity, are well known. The reagents used to conduct these tests are generally commercially available. In general, a simple system comprises an enzyme-specific substrate which, when hydrolyzed by the enzyme, produces a colored product. The activity of the enzyme is measured spectrophotometrically as the degree of development of the colored product (i.e., the rate of color change) over a predetermined time period. […] The following are exemplary methods that may be utilized to determine the inhibitory activity of enzyme inhibitors against A) purified enzymes known to exist in feces, B) specific enzyme activity in the feces itself and C) general enzyme activity in the feces itself. These methods are not intended to be limiting, however, as other methods, other substrates, other inhibitors and the like may be used to test activity against a wide variety of fecal enzymes, as known to one skilled in the art.
For each of the following exemplary Purified Enzyme Methods, Specific Fecal Enzyme Methods, General Fecal Enzymes Method, Purified Lipase activity assay, Fecal Lipase activity assay, Purified Urease activity assay, Fecal Urease activity assay, Purified Amylase activity assay, and Fecal Amylase activity assay, the IC50 for each inhibitor tested may be calculated according to the following equation: […]
where [I] is the inhibitor concentration tested, v is the rate of substrate cleavage in the absence of inhibitor and vi is the rate of substrate cleavage in the presence of inhibitor.
In the methods, v and vi are measured as the change in absorbance (optical density, OD) at a given wavelength/time (e.g., minutes).
To test the efficacy of protease inhibitors against purified leucine aminopeptidase (LAP), 0.05 mL of a putative inhibitor and 0.125 mL of 0.06 U/mL LAP (e.g., Sigma, St. Louis, Mo., catalogue no. L5006) in LAP buffer (50 mM sodium phosphate, pH 7.2) are added to a microcuvette. The cuvette is incubated at 25° C. for 10 minutes. […] The same procedure is repeated without the putative inhibitor. […] The rates, vi and v, and the inhibitor concentration [I] are used to calculate IC50 according to the equation expressed above.

[2] = target: protease activity in feces; assay: General Fecal Enzymes Method (casein-resorufin cleavage); format: biochemical, infant; settings: fecal suspension, casein-resorufin substrate, pH 7.8, 37° C. for 60 minutes
Text: Pooled infant feces (at least five different samples) are collected in a manner to keep them free of urine and contamination and mixed with water to obtain a weight by weight (w/w) mixture (e.g., 1:50 w/w). This mixture is then mixed thoroughly to obtain a homogeneous suspension by homogenization or sonication. […] (Also, to ensure complete linearity the final absorbance should never exceed 1.5 OD405 units). If the activity of the pooled infant feces is outside this range, it is not possible to accurately determine IC50 values for putative protease inhibitors. However, the range of enzyme activity may be adjusted by increasing or decreasing the dilution factor accordingly for each enzyme. If this is not possible, a different group of subjects should be used to obtain the sample pool.
The general method described above for obtaining a sample of feces suitable for use in Specific Fecal Enzyme Methods can be easily adapted by one skilled in the art to obtain appropriate samples of feces suitable for use in the General Fecal Enzymes Method listed below without undue experimentation.
To test the efficacy of protease inhibitors against the protease activity in feces, 50 μL of inhibitor and 50 μL of fecal suspension are added to a 1.5 mL microcentrifuge tube. The microcentrifuge tube is mixed by inversion and incubated at 25° C. for 45 minutes. Then, 50 μL of protease buffer (200 mM TRIS buffer containing 20 mM CaCl2, pH 7.8) is added to the microcentrifuge tube. The microcentrifuge tube is again mixed by inversion and incubated at 25° C. for 45 minutes. […] The microcentrifuge tube is again mixed by inversion and incubated at 37° C. for 60 minutes for the substrate cleavage reaction to take place. Then, 480 μL of trichloroacetic acid (5% w/v) is added to stop the reaction and precipitate any unreacted casein-resorufin. The microcentrifuge tube is mixed by inversion incubated at 37° C. for 15 minutes. […] Then, 400 μL of the supernatant is added to 600 μL of assay buffer (0.5 M TRIS, pH 8.8) in a cuvette. […] The same procedure is repeated without the putative inhibitor. […] Before the start of the reaction, A and Ai are nearly zero. […] The rates, vi and v, and the inhibitor concentration [I] are used to calculate IC50 according to the equation expressed above.

[3] = purified leucine aminopeptidase, L-Leucine-p-nitroaniline, pH 7.2, 25° C., read-out: IC50 Purified Enzyme Methods LAP

CC1(C)[C@@H](O[C@H]2O[C@H](C(=O)O)[C@@H](O)[C@H](O)[C@H]2O[C@@H]2O[C@H](C(=O)O)[C@@H](O)[C@H](O)[C@H]2O)CC[C@]2(C)[C@H]3C(=O)C=C4[C@@H]5C[C@@](C)(C(=O)O)CC[C@]5(C)CC[C@@]4(C)[C@]3(C)CC[C@@H]12 [Glycyrrhizic Acid]
IC50 [1, 3]: > 500 µM

Cc1ccc(S(=O)(=O)N[C@@H](CCCCN)C(=O)CCl)cc1 [TLCK, L-1-chloro-3-[4-tosylamido]-7-amino-2-heptanone-HCl]
IC50 [1]: > 500 µM

N=C(N)c1ccc(N)cc1 [p-Amino-benzamidine]
IC50 [1, 3]: > 500 µM

N=C(N)c1ccc(OCCCCCCOc2ccc(C(=N)N)cc2)cc1 [Hexamidine diisethionate]
IC50 [1, 3]: 256 µM

Aprotinin
IC50 [1, 3]: > 20 µM

CC(C)C[C@H](NC(=O)[C@@H](NC(=O)N[C@@H](Cc1ccccc1)C(=O)O)[C@@H]1CCN=C(N)N1)C(=O)N[C@H](C=O)Cc1ccccc1 [Chymostatin]
IC50 [2]: 64 µM
IC50 [1, 3]: > 500 µM

CC(C)CC(=O)N[C@H](C(=O)N[C@H](C(=O)N[C@@H](CC(C)C)[C@@H](O)CC(=O)N[C@@H](C)C(=O)N[C@@H](CC(C)C)[C@@H](O)CC(=O)O)C(C)C)C(C)C [Pepstatin A] (Isovaleryl-VV[Sta]A[Sta]-OH)
IC50 [2]: > 32 µM
IC50 [1, 3]: > 500 µM

CC(=O)N[C@@H](CC(C)C)C(=O)N[C@@H](CC(C)C)C(=O)N[C@H](C=O)CCCNC(=N)N [Leupeptin]
IC50 [2]: > 320 µM
IC50 [1, 3]: > 500 µM

B1: Soybean trypsin inhibitor: plant-derived trypsin inhibitor (protein, UniProt P01070 25-205, looked up)
Trypsin inhibitor A: DFVLDNEGNPLENGGTYYILSDITAFGGIRAAPTGNERCPLTVVQSRNELDKGIGTIISSPYRIRFIAEGHPLSLKFDSFAVIMLCVGIPTEWSVVEDLPEGPAVKIGENKDAMDGWFRLERVSDDEFNNYKLVFCPQQAEDDKCGDIGISIDHDDGTRRLVVSKNKPLVVQFQKLDKESL
IC50 [2]: 4.9 µM
IC50 [1, 3]: > 10 µM
